{
  "source": "patent US11717508B2",
  "about": "“Compounds, compositions, and methods for inhibiting bacterial growth” (priority 2016, dated 2023)",
  "test_system": "DosRST regulon",
  "format": "cell-based",
  "conditions": "for WT DMSO/WT HC102A Fold change / log2 Fold change: upregulated",
  "key": {"[1]": {"conditions": "Rv3134c, WT Mtb treated with HC102A compared to DMSO"}, "[2]": {"conditions": "Rv3839, WT Mtb treated with HC102A compared to DMSO"}, "[3]": {"conditions": "WT Mtb treated with HC102A compared to DMSO"}, "[4]": {"conditions": "WT Mtb treated with HC102A, replicate 1"}, "[5]": {"conditions": "WT Mtb treated with HC102A, replicate 2"}},
  "note": "Read-outs that look alike come from different tables or passages of the source.",
  "data": [
    {"molecule": "C[C@@H]1CC(C)(C)C[C@]2(C1)NC(=O)NC2=O", "note": "(racemic) [HC102A, 7,7,9-trimethyl-1,3-diazaspiro[4.5]decane-2,4-dione]", "values": [
      {"measurement": "Counts per million (CPM) WT_HC102A1, gene MT3219", "setting": "Rv3133c, WT Mtb treated with HC102A, replicate 1", "value": 233.8, "unit": "CPM"},
      {"measurement": "Counts per million (CPM) WT_HC102A2, gene MT3219", "setting": "Rv3133c, WT Mtb treated with HC102A, replicate 2", "value": 174, "unit": "CPM"},
      {"measurement": "Fold change, gene MT3220", "setting": "[1]", "value": 0.04505},
      {"measurement": "log2 Fold change, gene MT3220", "setting": "[1]", "value": "−4.472"},
      {"measurement": "Counts per million (CPM) WT_HC102A1, gene MT3220", "setting": "Rv3134c, WT Mtb treated with HC102A, replicate 1", "value": 264.6, "unit": "CPM"},
      {"measurement": "Counts per million (CPM) WT_HC102A2, gene MT3220", "setting": "Rv3134c, WT Mtb treated with HC102A, replicate 2", "value": 171.8, "unit": "CPM"},
      {"measurement": "Fold change, gene MT3947", "setting": "[2]", "value": 0.2314},
      {"measurement": "log2 Fold change, gene MT3947", "setting": "[2]", "value": "−2.111"},
      {"measurement": "Counts per million (CPM) WT_HC102A1, gene MT3947", "setting": "Rv3839, WT Mtb treated with HC102A, replicate 1", "value": 25.93, "unit": "CPM"},
      {"measurement": "Counts per million (CPM) WT_HC102A2, gene MT3947", "setting": "Rv3839, WT Mtb treated with HC102A, replicate 2", "value": 7.681, "unit": "CPM"},
      {"measurement": "Fold change, gene MT0598", "setting": "[3]", "value": 0.2421},
      {"measurement": "Fold change, gene MT0600", "setting": "[3]", "value": 0.1586},
      {"measurement": "Fold change, gene MT1096", "setting": "[3]", "value": 0.3436},
      {"measurement": "Fold change, gene MT1385", "setting": "[3]", "value": 0.3712},
      {"measurement": "Fold change, gene MT1775", "setting": "[3]", "value": 0.2046},
      {"measurement": "Fold change, gene MT1777", "setting": "[3]", "value": 0.1265},
      {"measurement": "Fold change, gene MT2088", "setting": "[3]", "value": 0.0678},
      {"measurement": "Fold change, gene MT2090", "setting": "[3]", "value": 0.1133},
      {"measurement": "Fold change, gene MT3209", "setting": "[3]", "value": 0.4},
      {"measurement": "Fold change, gene MT3210", "setting": "[3]", "value": 0.04949},
      {"measurement": "log2 Fold change, gene MT0598", "setting": "[3]", "value": "−2.046"},
      {"measurement": "log2 Fold change, gene MT0600", "setting": "[3]", "value": "−2.656"},
      {"measurement": "log2 Fold change, gene MT1096", "setting": "[3]", "value": "−1.541"},
      {"measurement": "log2 Fold change, gene MT1385", "setting": "[3]", "value": "−1.43"},
      {"measurement": "log2 Fold change, gene MT1775", "setting": "[3]", "value": "−2.289"},
      {"measurement": "log2 Fold change, gene MT1777", "setting": "[3]", "value": "−2.983"},
      {"measurement": "log2 Fold change, gene MT2088", "setting": "[3]", "value": "−3.883"},
      {"measurement": "log2 Fold change, gene MT2090", "setting": "[3]", "value": "−3.141"},
      {"measurement": "log2 Fold change, gene MT3209", "setting": "[3]", "value": "−1.322"},
      {"measurement": "log2 Fold change, gene MT3210", "setting": "[3]", "value": "−4.337"},
      {"measurement": "Counts per million (CPM) WT_HC102A1, gene MT0598", "setting": "[4]", "value": 57.71, "unit": "CPM"},
      {"measurement": "Counts per million (CPM) WT_HC102A1, gene MT0600", "setting": "[4]", "value": 129.6, "unit": "CPM"},
      {"measurement": "Counts per million (CPM) WT_HC102A1, gene MT1096", "setting": "[4]", "value": 9.103, "unit": "CPM"},
      {"measurement": "Counts per million (CPM) WT_HC102A1, gene MT1385", "setting": "[4]", "value": 56.65, "unit": "CPM"},
      {"measurement": "Counts per million (CPM) WT_HC102A1, gene MT1775", "setting": "[4]", "value": 172.1, "unit": "CPM"},
      {"measurement": "Counts per million (CPM) WT_HC102A1, gene MT1777", "setting": "[4]", "value": 11.46, "unit": "CPM"},
      {"measurement": "Counts per million (CPM) WT_HC102A1, gene MT2088", "setting": "[4]", "value": 254.1, "unit": "CPM"},
      {"measurement": "Counts per million (CPM) WT_HC102A1, gene MT2090", "setting": "[4]", "value": "3,874.46 CPM"},
      {"measurement": "Counts per million (CPM) WT_HC102A1, gene MT3209", "setting": "[4]", "value": 5.689, "unit": "CPM"},
      {"measurement": "Counts per million (CPM) WT_HC102A1, gene MT3210", "setting": "[4]", "value": 0.5689, "unit": "CPM"},
      {"measurement": "Counts per million (CPM) WT_HC102A2, gene MT0598", "setting": "[5]", "value": 66.55, "unit": "CPM"},
      {"measurement": "Counts per million (CPM) WT_HC102A2, gene MT0600", "setting": "[5]", "value": 211.3, "unit": "CPM"},
      {"measurement": "Counts per million (CPM) WT_HC102A2, gene MT1096", "setting": "[5]", "value": 3.811, "unit": "CPM"},
      {"measurement": "Counts per million (CPM) WT_HC102A2, gene MT1385", "setting": "[5]", "value": 35.06, "unit": "CPM"},
      {"measurement": "Counts per million (CPM) WT_HC102A2, gene MT1775", "setting": "[5]", "value": 61.8, "unit": "CPM"},
      {"measurement": "Counts per million (CPM) WT_HC102A2, gene MT1777", "setting": "[5]", "value": 24.1, "unit": "CPM"},
      {"measurement": "Counts per million (CPM) WT_HC102A2, gene MT2088", "setting": "[5]", "value": 225.6, "unit": "CPM"},
      {"measurement": "Counts per million (CPM) WT_HC102A2, gene MT2090", "setting": "[5]", "value": "5,782.55 CPM"},
      {"measurement": "Counts per million (CPM) WT_HC102A2, gene MT3209", "setting": "[5]", "value": 5.394, "unit": "CPM"},
      {"measurement": "Counts per million (CPM) WT_HC102A2, gene MT3210", "setting": "[5]", "value": 0.1173, "unit": "CPM"},
      {"measurement": "Counts per million (CPM) WT_HC102A1", "setting": "gene MT3514 (Rv3406), replicate 1", "value": 494.4, "unit": "CPM"},
      {"measurement": "Counts per million (CPM) WT_HC102A2", "setting": "gene MT3514 (Rv3406), replicate 2", "value": 168, "unit": "CPM"},
      {"measurement": "WT DMSO/WT HC102A Fold change", "setting": "gene MT3514 (Rv3406)", "value": 6.242},
      {"measurement": "log2 Fold change", "setting": "gene MT3514 (Rv3406)", "value": 2.642},
      {"measurement": "Counts per million (CPM) WT_HC102A1", "setting": "gene MT3515 (Rv3407), replicate 1", "value": 191.1, "unit": "CPM"},
      {"measurement": "Counts per million (CPM) WT_HC102A2", "setting": "gene MT3515 (Rv3407), replicate 2", "value": 103.1, "unit": "CPM"},
      {"measurement": "WT DMSO/WT HC102A Fold change", "setting": "gene MT3515 (Rv3407)", "value": 2.831},
      {"measurement": "log2 Fold change", "setting": "gene MT3515 (Rv3407)", "value": 1.501}
    ]}
  ]
}
